In US4374845A, “1-(7-Carboxy-2-octynyl)imidazole derivatives, pharmaceutical compositions and use” (Kissei Pharmaceutical Co., priority 1980, dated 1983) one finds IC50 data, which are given here for one compound.

The target of this assay is T1, thromboxane synthetase from rabbit platelet microsomes (Oryctolagus cuniculus, UniProt G1TAZ9).
T1 construct: thromboxane synthetase from rabbit platelet microsomes; from tissue; host or cells: rabbit platelet microsomes
T1 sequence (G1TAZ9 1-530): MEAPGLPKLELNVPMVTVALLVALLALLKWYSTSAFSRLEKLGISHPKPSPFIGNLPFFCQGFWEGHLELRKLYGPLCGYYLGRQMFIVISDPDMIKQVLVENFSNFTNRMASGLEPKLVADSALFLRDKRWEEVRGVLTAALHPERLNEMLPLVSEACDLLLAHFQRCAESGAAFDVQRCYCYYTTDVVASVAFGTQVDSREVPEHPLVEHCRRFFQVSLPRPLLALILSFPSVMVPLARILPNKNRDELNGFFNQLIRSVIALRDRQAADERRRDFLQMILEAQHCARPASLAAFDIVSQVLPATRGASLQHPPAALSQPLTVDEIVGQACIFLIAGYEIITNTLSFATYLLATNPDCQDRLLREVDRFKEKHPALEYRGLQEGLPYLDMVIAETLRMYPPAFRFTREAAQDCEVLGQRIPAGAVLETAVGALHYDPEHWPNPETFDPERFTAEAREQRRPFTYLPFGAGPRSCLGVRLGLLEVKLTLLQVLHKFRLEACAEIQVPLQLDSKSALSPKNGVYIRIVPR
Description: inhibition of thromboxane synthetase from rabbit platelet microsomes. In kind it is biochemical. As to conditions: standard laboratory tests, read-out: molar concentration producing 50% inhibition of thromboxane synthetase. From the text: For example, in standard laboratory tests, 1-(7-carboxy-7-methyl-2-octynyl)imidazole hydrochloride produce a 50% inhibition of thromboxane synthetase from rabbit platelet microsomes at the molar concentrations of 9×10^-9.

SMILES strings stand for the structures. Counter-ions that a name gives are not always drawn.

With `CC(C)(CCCC#CCn1ccnc1)C(=O)O` [Example 2, 1-(7-carboxy-7-methyl-2-octynyl)imidazole hydrochloride], the IC50 was 9 nM.
